{"source": "patent US20070219208A1", "about": "“Methods for Treating Cancer” (priority 2006, published 2007)", "type_in_all_cases": "cell-based", "key": {"[1]": {"tested_on": "NO2-/NO3- levels in MCF-7 cells", "experiment": "Nitrite and nitrate measurements by chemiluminescence (NO analyzer)", "details": "with simvastatin or fluvastatin (10 μM), 40 h; mevalonate 20 μM, 1400 W 10 μM, sepiapterin 50 μM; compared to statin alone", "procedure": "Briefly, following treatments, cells were washed three times with DPBS after aspirating the medium. To this, 1 ml of Hanks' balanced salt mixture containing 25 μM L-arginine was added and incubated for 30 min at 37° C. The medium was collected and centrifuged for 5 min at 5000 rpm, and 50 μl of the clear supernatant was used for nitrate and nitrite analysis. Each sample was analyzed in triplicate."}, "[2]": {"tested_on": "arginase II in MCF-7 cells", "experiment": "Arginase II transcript levels by RT-PCR", "details": "mevalonate 20 μM", "procedure": "Following the treatments, medium was aspirated and 1 ml of TRIzol reagent (Invitrogen) was added and total RNA was extracted using the manufacturer's protocol. Five μg of RNA was used for the first strand cDNA synthesis using a first strand cDNA synthesis kit (Amersham Biosciences). Four μl of the cDNA mixture was used to amplify mRNA's of iNOS [(5′-[…]-3′, SEQ ID NO:1) and (5′-[…]-3′, SEQ ID NO:2)], arginase I [(5′-[…]-3′, SEQ ID NO:3) and (5′-[…]-3′, SEQ ID NO:4)], arginase II [(5′-[…]-3′, SEQ ID NO:5) and (5′-[…]-3′, SEQ ID NO:6)], and eNOS [(5′-[…]-3′, SEQ ID NO:7) and (5′-[…]-3′, SEQ ID NO:8)]."}, "[3]": {"tested_on": "MCF-7 cells", "experiment": "Cell cycle analysis by flow cytometry", "details": "1400 W 10 μM, mevalonate 20 μM", "procedure": "For DNA content analysis, harvested cells were centrifuged at 1,000×g for 5 min, fixed by the gradual addition of ice-cold 70% ethanol, and washed with PBS. Cells were then treated with RNase (10 μg/mL) for 30 min at 37° C., washed once with PBS, and resuspended and stained in 1 mL of 69 μmol/L propidium iodide in 38 mmol/L sodium citrate for 30 min at room temperature. The cell cycle phase distribution was determined by analytic DNA flow cytometry as described in (Vindelov L, et al. Methods Cell Biol, 33:127-37, 1990). The percentage of cells in each phase of the cell cycle was analyzed using a Modfit software (Verity Software House, Topsham, Me.).\nAs NO has previously been reported to exert tumor cell cycle alterations (Pervin S, et al. Natl Acad Sci USA 98:3583-3588, 2001), we investigated the cytostatic effect of statins in MCF-7 cells. MCF-7 cells were treated with simvastatin and fluvastatin for […] in the presence and absence of 1400 W (10 μM) and mevalonate (20 μM). Cell cycle progression was examined using FACScan flow cytometry analysis. […] As cell cycle progression from […] involves activations of the cell regulatory proteins, cyclins D and E, we investigated the effects of statins and iNOS inhibitor on the cell cycle proteins. […]"}, "[4]": {"tested_on": "cyclin D1, cyclin E and p27 in MCF-7 cells", "experiment": "Cell cycle protein levels by Western analysis (cyclin D1, cyclin E, p27)", "details": "1400 W 10 μM or mevalonate 20 μM", "procedure": "A (Table): The cell cycle distribution of MCF-7 cells treated with either simvastatin or fluvastatin (5-10 μM) for 40 h in the presence or 1400 W (10 μM) or mevalonate (20 μM). The cell sorting was performed by flow cytometry as described in “Materials and Methods.” B: Cells were treated with simvastatin or fluvastatin (10 μM) in the presence or absence of 1400 W (10 μM) or mevalonate (20 μM) for 40 h and cyclins D1 and E protein levels were measured by the Western analysis using the corresponding polyclonal or monoclonal antibodies. Data are representative of three separate experiments.\nAfter treatment with statins, cells were washed with ice-cold DPBS and resuspended in 150 μl of radioimmune precipitation assay buffer (20 mM Tris-HCl, pH 7.4, 2.5 mM EDTA, 1% Triton X-100, 1% sodium deoxycholate, 1% SDS, 100 mM NaCl, 100 mM sodium fluoride) containing 1 mM sodium vanadate, 10 μg/ml aprotinin, 10 μg/ml leupeptin, and 10 μg/ml pepstatin inhibitors. Cells were homogenized by passing the suspension through a 25-gauge needle (20 strokes). The lysate was centrifuged at 750×g for 10 min at 4° C. to pellet out the nuclei. The remaining supernatant was centrifuged for 30 min at 12,000×g. Protein was determined using the Lowry method and 50 μg of the lysate was used for the Western blot analysis. […] The band was detected using the ECL method (Amersham Biosciences)."}, "[5]": {"tested_on": "MCF-7 cells", "experiment": "Soft agar assay for colony formation (anchorage-independent growth)", "details": "1400 W 10 μM or mevalonate 20 μM with statin 10 μM", "procedure": "Soft Agar Assay for Colony Formation:\nAfter cells were treated with various conditions, they were seeded in six-well plates. The plates were first covered with phenol red-free MEM containing 0.6% agar and 10% FBS. The middle layer contained cells (5×10^3) in phenol red-free MEM with 0.35% agar and 10% FBS. The top layer, consisting of the medium, was added to prevent drying of the agar in the plates. The plates were incubated for 21 days, after which the plates were stained in 0.5 ml of 0.005% crystal violet for 1 h and the cultures were inspected and photographed. The colony efficiency (CE) was determined by a count of the number of colonies greater than […] in diameter, which was calculated as the average of colonies counted at 50× magnification in five individual fields manually (Liu S, et al. Oncogene, 23:1256-62, 2004).\nThe long-term effects of statins and the inhibitors on the proliferation and survival of MCF-7 cells were determined using clonogenic assays (Ramanathan B, et al. Cancer Res, 65:8455-60, 2005). The extent of malignancy of cells corresponds to the attainment of anchorage-independent growth (Liu S, et al. Oncogene, 23:1256-62, 2004). MCF-7 cells were treated with simvastatin or fluvastatin in the presence or absence of either 1400 W or mevalonate or sepiapterin. In separate experiments, cells were treated with either GGTI-298 or FTI-277. At the end of the treatments, approximately 5×10^3 cells were seeded onto a soft agar to determine their clonogenic efficiency after 21 days. […] In the presence of either 1400 W or mevalonate, the colony formation was restored in statin-treated cells (FIG. 6B)."}}, "note": "Entries after “also recorded” stand apart in the source; their conditions may differ."}
{"smiles": "CC(O)(CCO)CC(=O)O", "note": "(centres unmarked) [mevalonate]", "values": [{"measurement": "effect on statin-induced NO / NO2-/NO3- levels", "setting": "[1]", "result": "inhibited; also recorded: suppressed"}, {"measurement": "effect on statin-induced down-regulation of Arg II level", "setting": "[2]", "result": "reversed"}, {"measurement": "effect on statin-induced cell cycle alterations", "setting": "[3]", "result": "almost completely reversed"}, {"measurement": "effect on statin-induced decrease of cyclin D1 and cyclin E", "setting": "[4]", "result": "restored in part"}, {"measurement": "colony formation in statin-treated cells in the presence of modulator", "setting": "[5]", "result": "restored"}]}
